Results published in US20230414700A1, “TG2 INHIBITORS FOR IMPROVING MUCOCILIARY CLEARANCE IN RESPIRATORY DISEASES” (INSERM (INSTITUT NATIONAL DE LA SANTÉ ET DE LA RECHERCHE …, priority 2020, published 2023).
“Also recorded” adds a separate entry of the source. Square brackets hold non-standard residues; d marks the D form. Peptide text beside a SMILES is read from it. * marks the point of attachment. ξ: configuration not given here. DON = [N-]=[N+]=CC(=O)CC[C@H](N)C(=O)O; Ile(3ξ) = CCC(C)[C@H](N)C(=O)O; Cbz = O=C(OCc1ccccc1)*

Assays:
[1] = system: ALI-regenerated hypersecretory epithelia; test: Mucus (MUC5AC) tethering to the apical surface after extensive apical washes with PBS, immunofluorescence; format: cell-based; conditions: IL-13-induced hypersecretory bronchial epithelium reconstituted in vitro at air-liquid interface; n=2
Text: Whole-mount images represent stacks from optical sections done through the mucus (parallel to the plane of the epithelium). epi, epithelium. Extracellular mucus was quantified after beta-tubulin staining to delineate cell apex, and expressed as sum intensities (in […]) (n=2).
(§1) Methods: The bronchial epithelium from asthmatic patients, cystic fibrosis or control subjects was reconstituted in vitro by culturing cells at the air-liquid interface. Hyper secretory differentiation was modeled by exposing control bronchial epithelial to IL-13. Expression of TG2 and MUC5AC was assessed by RT-qPCR and immunohistochemistry/immunofluorescence. Mucin modification by TG2 was evaluated by BAP incorporation and Western-blot analysis. Mucus tethering to the apical surface was studied by detecting MUC5AC after extensive apical washes with PBS. The role of TG2 was evaluated using the pharmacological inhibitor ZDON. Mucociliary clearance was evaluated by video microscopy using fluorescent microspheres.

[2] = system: IL-13-stimulated hypersecretory epithelia; test: Mucociliary clearance by video microscopy using fluorescent microspheres; format: cell-based; conditions: 30-second image sequence, n=2
Description: The final image from a 30-second image sequence (every 5 ms) is shown (ImageJ, Z Project). B: Quantification of travelled distance (ImageJ, Plugin MTrack3). Median values are shown. n=2.
as §1

Structure (SMILES): CCC(C)[C@H](NC(=O)[C@H](CCC(N)=O)NC(=O)[C@H](CCC(=O)C=[N+]=[N-])NC(=O)OCc1ccccc1)C(=O)N[C@H](C(=O)OC)C(C)C (some centres unmarked) [ZDON] (Cbz-[DON]Q[Ile(3ξ)]V-OMe)
- MUC5AC tethering to the apical surface of hypersecretory epithelia [1]: decreases MUC5AC tethering; also recorded: blocked
- Mucociliary clearance (travelled distance of fluorescent microspheres) [2]: tends to ameliorate mucociliary clearance
